Results as given in PubChem BioAssay (NCI).
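Five compound concentrations were applied to cells in 96-well plates for 48 hours; endpoints were derived by simple linear interpolation of the resulting dose-response curve. GI50 = concentration required for 50% inhibition of growth. At the TGI there is no net growth.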

Key:
Assay in all cases: NCI tumour cell line growth inhibition, 48 h
[1] = tested on: NCI-H460 lung
[2] = tested on: RPMI-8226 leukemia
[3] = tested on: MOLT-4 leukemia
[4] = tested on: ACHN renal
[5] = tested on: OVCAR-8 ovarian
[6] = tested on: UACC-62 melanoma
[7] = tested on: CCRF-CEM leukemia
[8] = tested on: UACC-257 melanoma
[9] = tested on: MCF7 breast
[10] = tested on: NCI-H23 lung
[11] = tested on: SK-MEL-2 melanoma
[12] = tested on: HS 578T breast
[13] = tested on: NCI-H522 lung
[14] = tested on: OVCAR-5 ovarian
[15] = tested on: SN12C renal
[16] = tested on: SK-MEL-5 melanoma
[17] = tested on: BT-549 breast
[18] = tested on: MDA-MB-435
[19] = tested on: SF-539 CNS
[20] = tested on: RXF 393 renal
[21] = tested on: OVCAR-4 ovarian
[22] = tested on: SF-268 CNS
[23] = tested on: SR leukemia
[24] = tested on: A549 NSCLC
[25] = tested on: MDA-MB-231 breast
[26] = tested on: COLO 205 colon
[27] = tested on: EKVX NSCLC
[28] = tested on: UO-31 renal
[29] = tested on: HOP-92 NSCLC
[30] = tested on: DU-145 prostate
[31] = tested on: HCT-15 colon
[32] = tested on: A498 renal
[33] = tested on: OVCAR-3 ovarian
[34] = tested on: SK-MEL-28 melanoma
[35] = tested on: HCC-2998 colon
[36] = tested on: SNB-19 CNS
[37] = tested on: MALME-3M melanoma
[38] = tested on: TK-10 renal
[39] = tested on: T-47D breast
[40] = tested on: SNB-75 CNS
[41] = tested on: NCI/ADR-RES ovarian
[42] = tested on: IGROV1 ovarian
[43] = tested on: HCT-116 colon
[44] = tested on: SK-OV-3 ovarian
[45] = tested on: PC-3 prostate
[46] = tested on: HL-60(TB) leukemia
[47] = tested on: CAKI-1 renal
[48] = tested on: K-562 leukemia
[49] = tested on: NCI-H226 lung
[50] = tested on: KM12 colon
[51] = tested on: SF-295 CNS
[52] = tested on: SW-620 colon
[53] = tested on: U251 CNS
[54] = tested on: M14 melanoma
[55] = tested on: 786-0 renal
[56] = tested on: HT29 colon
[57] = tested on: HOP-62 NSCLC

## CN1CCN(Cc2ccc(NC(=O)c3cnc(F)c(C#Cc4cnc(N)c5ncccc45)c3)cc2C(F)(F)F)CC1
[1]
  GI50: 182 nM
  TGI: 6490 nM
[2]
  GI50: 332 nM
  TGI: 22700 nM
[3]
  GI50: 182 nM
  TGI: 8640 nM
[4]
  GI50: 119 nM
  TGI: 5270 nM
[5]
  GI50: 425 nM
  TGI: 22200 nM
[6]
  GI50: 103 nM
  TGI: 586 nM
[7]
  GI50: 188 nM
  TGI: 20800 nM
[8]
  GI50: 339 nM
  TGI: 6510 nM
[9]
  GI50: 309 nM
  TGI: 5760 nM
[10]
  GI50: 485 nM
  TGI: 9590 nM
[11]
  GI50: 114 nM
  TGI: 451 nM
[12]
  GI50: 183 nM
  TGI: 2110 nM
[13]
  GI50: 204 nM
  TGI: 9960 nM
[14]
  GI50: 417 nM
  TGI: 9270 nM
[15]
  GI50: 161 nM
  TGI: 5570 nM
[16]
  GI50: 735 nM
  TGI: 5050 nM
[17]
  GI50: 1110 nM
  TGI: 9830 nM
[18]
  GI50: 141 nM
  TGI: 6090 nM
[19]
  GI50: 199 nM
  TGI: 2830 nM
[20]
  GI50: 122 nM
  TGI: 567 nM
[21]
  GI50: 195 nM
  TGI: 8150 nM
[22]
  GI50: 324 nM
  TGI: 6350 nM
[23]
  GI50: 149 nM
  TGI: 50000 nM
[24]
  GI50: 321 nM
  TGI: 11900 nM
[25]
  GI50: 189 nM
  TGI: 1140 nM
[26]
  GI50: 190 nM
  TGI: 5330 nM
[27]
  GI50: 1530 nM
  TGI: 11300 nM
[28]
  GI50: 140 nM
  TGI: 1160 nM
[29]
  GI50: 133 nM
  TGI: 1170 nM
[30]
  GI50: 273 nM
  TGI: 7950 nM
[31]
  GI50: 184 nM
  TGI: 7530 nM
[32]
  GI50: 161 nM
  TGI: 963 nM
[33]
  GI50: 516 nM
  TGI: 9580 nM
[34]
  GI50: 126 nM
  TGI: 804 nM
[35]
  GI50: 963 nM
  TGI: 9210 nM
[36]
  GI50: 1940 nM
  TGI: 11900 nM
[37]
  GI50: 50.8 nM
  TGI: 234 nM
[38]
  GI50: 679 nM
  TGI: 11600 nM
[39]
  GI50: 983 nM
  TGI: 22300 nM
[40]
  GI50: 643 nM
  TGI: 6470 nM
[41]
  GI50: 480 nM
  TGI: 12500 nM
[42]
  GI50: 139 nM
  TGI: 7480 nM
[43]
  GI50: 150 nM
  TGI: 2990 nM
[44]
  GI50: 263 nM
  TGI: 8700 nM
[45]
  GI50: 320 nM
  TGI: 10100 nM
[46]
  GI50: 195 nM
  TGI: 4410 nM
[47]
  GI50: 110 nM
  TGI: 877 nM
[48]
  GI50: 5 nM
  TGI: 675 nM
[49]
  GI50: 121 nM
  TGI: 1940 nM
[50]
  GI50: 6.61 nM
  TGI: 6050 nM
[51]
  GI50: 294 nM
  TGI: 9240 nM
[52]
  GI50: 226 nM
  TGI: 5820 nM
[53]
  GI50: 252 nM
  TGI: 13200 nM
[54]
  GI50: 74.6 nM
  TGI: 601 nM
[55]
  GI50: 448 nM
  TGI: 7860 nM
[56]
  GI50: 143 nM
  TGI: 6020 nM
[57]
  GI50: 387 nM
  TGI: 9900 nM
